Patent publication US10988786B2, “Mutant 4-hydroxyphenylacetate 3-hydroxylases and uses thereof” (SYMRISE AG, priority 2015, dated 2021)
Positions count from the first letter of the chain named. In names and notes the source's numbering stands.

Assays:
[1] = molecular target: T1, 4HPA3H (Escherichia coli, UniProt Q57160); experiment: Whole-cell hydroxylation, cells expressing wild-type 4HPA3H; assay type: cell-based, E. coli; settings: BL21(DE3) cells expressing wild-type 4HPA3H
T1 construct: expressed in transfected cells; host or cells: E. coli BL21(DE3)
Description: (§5) Substrates (200 μM) as shown in FIG. 1 were added to suspensions of bacterial cells expressing 4HPA3H or its single (A) and double variants (B). After incubation for 16 hours, catechols and residual substrates were extracted and analyzed by HPLC
(§6) Suspensions of the cells were tested for hydroxylation of a panel of eight phenolic compounds (FIG. 1) which belong to different classes of natural products: we included (I) phenolic acids and ketones such as p-coumaric acid (1), ferulic acid (3), rheosmin (15) and p-hydroxybenzoic acid (9), (II) polycyclic compounds such as the hydroxycoumarin umbelliferone (13), the stilbene resveratrol (5) and the flavonoid naringenin (7). […] 4HPA3H was also tested for conversion of 4-methoxycinnamic acid and 4-aminocinnamic acid.

[2] = molecular target: T2, wild-type 4HPA3H (Escherichia coli, UniProt Q57160); experiment: In vitro hydroxylation by the 4HPA3H/PrnF/FDH system, wild-type 4HPA3H; assay type: biochemical, E. coli; settings: substrate 1 mM, purified wild-type 4HPA3H, optimized conditions
T2 construct: made in house; host or cells: E. coli BL21(DE3)
Description: (§1) Purified 4HPA3H (A) or variants (B) (Y301I depicted in white and Y301F/S462A depicted in black) were used for conversion of substrates (1 mM) under optimized conditions. The numbers correspond to substrates as explained in the legend for FIG. 1 above.
(§2) In order to develop an effective and low-cost enzyme system for in vitro hydroxylation, several parameters of the 4HPA3H reaction with respect to maximum reaction rate were optimized. By means of a spectrophotometric assay (Example 4 above), the inventors screened different buffer systems and optimized the concentration of the components p-coumaric acid (1 cf. FIG. 1), FAD, NADH and methanol, the incubation temperature and oxygen transfer (i.e. by variation of the shaking frequency) (optimum conditions are given in the Experimental Section). […] In contrast to the cofactors, the accompanying cofactor recycling redox enzymes PrnF and FDH were used in excess due to their high specific activity.
In accordance with the whole-cell transformation experiments (FIG. 3), product yields in the conversion by the wild-type 4HPA3H (FIG. 8A) ranged from high (1, 13, 15 cf. FIG. 1) or moderate (5 cf. FIG. 1) to low (9, 11 cf. FIG. 1), whereas ferulic acid 3 was not oxidized. […] However, in contrast to the experiments with life biocatalysts […] conversion of naringenin (7 cf. FIG. 1) by the wild-type 4HPA3H (25% yield) was observed (which might be explained by increased substrate availability). The hydroxycarbazole (11) was not accepted by the double variant Y301F/S462A, probably because of the high substrate concentration which seems to reflect strong […] inhibition—an effect which has previously been observed for other 4HPA3H enzymes. Noteworthy, HPLC analysis of the reaction products confirmed product specificity.

[3] = molecular target: T3, 4HPA3H-Y301F/S462A (SEQ ID NO:175) (Escherichia coli, UniProt Q57160, S462A/Y301F); experiment: Solid phase-based cascade (Talon column), hydroxylation of naringenin to eriodictyol; assay type: biochemical, E. coli
T3 construct: made in house; host or cells: E. coli BL21(DE3)
Description: Stock solutions of […] and eriodictyol (10 mM each) in methanol were produced (for the structure of the compounds, see FIG. 9). They were diluted using acetonitrile for obtaining the desired concentrations (70, 110, 140, 210 and 280 μM). 10 μl of each sample was injected in to a HPLC machine and calibration curves were produced for both substances (data not shown).
First the catalysis was performed using 9 mU oxidase 4HPA3H in a 10 ml reaction comprising 1 ml 1M Tris/HCl, pH 7.5; 25 μl of a 10 mM NADH solution, 20 μl of a 5 mM FAD solution and 1 ml formate solution using 9 mU 4HPA3H-Y301F/S462A (SEQ ID NO:175) and 0.57 mU PrnF-reductase (SEQ ID NO:176) and 640 mU FDH (SEQ ID NO:177). Subsequently the enzymes were mixes, 100 μl 1M Tris/HCl solution, pH 7.5, was added and ddH2O (deionized, reverse osmosis) was added ad 2 ml. The enzyme solution was at least 5 times passed through a 1 ml Talon column with a flow rate of 0.1 ml/min^−1 to let the proteins bind to the column in a homogenous way. The evaluation of the complete binding of the proteins to the column material was measured via Bradford assay. Then, the column was washed once with 50 mM Tris/HCl, pH 7.5 (=basis buffer), and connected to a peristaltic pump.
The constituents of each reaction mixture were transferred to a suitable sterile flask, which was then connected to a peristaltic pump. During reaction, the reaction mixture was slightly stirred with the help of a magnetic stirrer. Using a flow rate of 1 ml/min, the system was washed with the basis buffer for 2 min and a control sample was taken. Only then, the substrate was added, here 200 μM naringenin (from a 10 mM stock solution in methanol). The substrate was pumped over the Talon column having the enzymes bound thereto with a flow rate of 1 ml/min at maximum. During the time range from 0-1310 min, the sample extraction was performed in samples of 35 μl each. Said samples were mixed with an equal volume of acetonitrile and were immediately injected into a HPLC device (20 μl each). The evaluation was conducted with the help of a calibration curve done at the beginning of the experiment and thereby measuring and calculating the peak areas (see FIG. 10).
The same assay was performed using 35 mU hydroxylase/1 ml column volume and the concentration of the co-enzymes for regeneration of the cofactor was increased equivalently.

[4] = tested on: 4HPA3H enzymes; settings: previous study; cited from earlier work
[5] = Whole-cell hydroxylation, variants on substrates 5, 9 and 11; assay type: cell-based; settings: whole cells
[6] = Whole-cell hydroxylation, variants compared with wild-type on well-accepted substrates; settings: whole cells
Description: as §5, §6

[7] = In vitro catechol complex formation assay (4HPA3H/PrnF/FDH), p-coumaric acid; assay type: biochemical; settings: purified enzyme, optimized conditions, PrnF and FDH
Description: (A) Standard curve for the determination of caffeic acid (2 cf. FIG. 1). Mixtures of caffeic acid and p-coumaric acid (1) were incubated with FeCl3 and analyzed at 595 nm as described in the Experimental Section. (B) Time course of the oxidation of p-coumaric acid (1 cf. FIG. 1) by wild-type 4HPA3H. The enzymatic reaction was performed under optimized conditions, and produced caffeic acid (2 cf. FIG. 1) was detected as Fe^3+ complex. Data are the means±standard deviations obtained from three measurements.
(§3) For assaying 4HPA3H in microplate scale, 4HPA3H was incubated with PrnF, the substrate p-coumaric acid (1 cf. FIG. 1) and the formate dehydrogenase (FDH) from Candida boidinii. Similar as reported in our previous publication, this enzyme was introduced for regeneration of the costly cofactor NADH: NAD^+ formed during the reaction is recycled with sodium formate, yielding a sequential three-enzyme cascade for hydride transfer (FIG. 2). The conversion of p-coumaric acid (1 cf. FIG. 1) was measured spectrophotometrically by a previously established catechol complexation method (M. Dippe, B. Weigel, R. Heinke, T. Vogt, L. A. Wessjohann, 2014), which could be applied for quantitative determination of the product caffeic acid (see FIG. 6). […] However, similar to the data obtained from whole-cell biotransformations (see Example 2), these variants were beneficial in the conversion of ferulic acid (3 cf. FIG. 1), which is also reflected by comparably high conversion rates (4HPA3H-Y301F/S462A: 1.06±0.31 nmol min^−1 mg^−1, 4HPA3H-Y301I: 4.49±0.20 nmol min^−1 mg^−1).
(§4) In order to develop an effective and low-cost enzyme system for in vitro hydroxylation, several parameters of the 4HPA3H reaction with respect to maximum reaction rate were optimized. […]

[8] = In vitro assay (4HPA3H/PrnF/FDH), conversion of ferulic acid; assay type: biochemical; settings: purified enzyme, PrnF and FDH
Description: as §3, §4

[9] = In vitro hydroxylation, mutant enzymes on challenging substrates 3 and 7; assay type: biochemical; settings: substrate 1 mM, purified enzymes
Description: as §1, §2
In accordance with the whole-cell transformation experiments (FIG. 3), product yields in the conversion by the wild-type 4HPA3H (FIG. 8A) ranged from high (1, 13, 15 cf. FIG. 1) or moderate (5 cf. FIG. 1) to low (9, 11 cf. FIG. 1), whereas ferulic acid 3 was not oxidized. […]

For Nc1ccc(C=CC(=O)O)cc1 [4-aminocinnamic acid], which “acceptance as substrate” value [1] is on record?
The value was “no substrates”.

Which “acceptance as substrate” value [1] does the source give for COc1ccc(C=CC(=O)O)cc1 [4-methoxycinnamic acid] here?
Its value is “no substrates”.

What does the source list for O=C(O)/C=C/c1ccc(O)cc1 [Compound 1, p-coumaric acid]?
acceptance as substrate [1]: high efficiency; product yield [2]: high

Which “acceptance as substrate” value [1] does the source give for COc1cc(/C=C/C(=O)O)ccc1O [Compound 3, ferulic acid] here?
Its value is “not accepted”.

And the “product yield” value [2]?
Its value is “not oxidized”.

With Oc1ccc(C=Cc2cc(O)cc(O)c2)cc1 [Compound 5, resveratrol] as the molecule, how does the “product yield” value [2] read?
The value was “moderate”.

With O=C1C[C@@H](c2ccc(O)c(O)c2)Oc2cc(O)cc(O)c21 [Compound 8, eriodictyol] as the molecule, how does the “biocatalytic formation of eriodictyol” value ([3]; 9 mU enzyme/1 ml column, 200 μM naringenin, after 1290 min) read?
The value was 42.4 µM.

And the eriodictyol yielded ([3]; 35 mU hydroxylase/1 ml column volume, after 240 min)?
The eriodictyol yielded was 67.7 µM.

With O=C(O)c1ccc(O)cc1 [Compound 9, p-hydroxybenzoic acid] as the molecule, how does the “product yield” value [2] read?
The value was “low”.

With O=c1ccc2ccc(O)cc2o1 [Compound 13, umbelliferone] as the molecule, how does the “product yield” value [2] read?
The value was “high”.

For CC(=O)CCc1ccc(O)cc1 [Compound 15, rheosmin], which “conversion / yield of catechol product” value ([1]; substrate 200 μM, 16 hours, HPLC) is on record?
The value was 100%.

And the “product yield” value [2]?
Its value is “high”.

For O=C(O)C=Cc1ccccc1 [cinnamic acid], which “hydroxylation of substrate” value [4] is on record?
The value was “unable to hydroxylate”.

B1: 4HPA3H-Y301F: 4HPA3H single variant Y301F (protein, listed as Escherichia coli)
chain: MKPEDFRASTQRPFTGEEYLKSLQDGREIYIYGERVKDVTTHPAFRNAAASVAQLYDALHKPEMQDSLCWNTDTGSGGYTHKFFRVAKSADDLRQQRDAIAEWSRLSYGWMGRTPDYKAAFGCALGANPGFYGQFEQNARNWYTRIQETGLYFNHAIVNPPIDRHLPTDKVKDVYIKLEKETDAGIIVSGAKVVATNSALTHYNMIGFGSAQVMGENPDFALMFVAPMDADGVKLISRASYEMVAGATGSPYDYPLSSRFDENDAILVMDNVLIPWENVLIYRDFDRCRRWTMEGGFARMFPLQACVRLAVKLDFITALLKKSLECTGTLEFRGVQADLGEVVAWRNTFWALSDSMCSEATPWVNGAYLPDHAALQTYRVLAPMAYAKIKNIIERNVTSGLIYLPSSARDLNNPQIDQYLAKYVRGSNGMDHVQRIKILKLMWDAIGSEFGGRHELYEINYSGSQDEIRLQCLRQAQNSGNMDKMMAMVDRCLSEYDQDGWTVPHLHNNDDINMLDKLLK
modifications: 4HPA3H HpaB Y301F
notes: 4HPA3H single variant Y301F
Which “conversion of the substrates 5, 9 and 11” value [5] does the source give for B1 here?
Its value is “superior”.

What about the “activity towards substrates 1, 13, 15 compared with wild-type enzyme” value [6] of the same molecule?
Its value is “comparably active”.

B2: 4HPA3H-Y301F/S462A: 4HPA3H double variant, SEQ ID NO:175 (protein, listed as Escherichia coli)
chain: B1 chain with S462A
modifications: 4HPA3H HpaB Y301F/S462A
Which “specific activity towards p-coumaric acid (1)” value [7] does the source give for B2 here?
Its value is 1.6 ± 0.3 nmol/min/mg.

What about the “conversion rate of ferulic acid (3)” value [8] of the same molecule?
Its value is 1.06 ± 0.31 nmol/min/mg.

What about the “transformation of the challenging substrates 3 and 7” value [9] of the same molecule?
Its value is “optimal”.

B3: S462A: 4HPA3H single variant S462A (protein, listed as Escherichia coli)
chain: B1 chain with F301Y, S462A
modifications: 4HPA3H HpaB S462A
For B3, which “activity towards substrates 1, 13, 15 compared with wild-type enzyme” value [6] is on record?
Its value is “comparably active”.

B4: 4HPA3H-Y301I: 4HPA3H single variant with isoleucine at position 301 (protein, listed as Escherichia coli)
chain: B1 chain with F301I
modifications: 4HPA3H HpaB Y301I
notes: 4HPA3H single variant with isoleucine at position 301
Which results are given for B4?
specific activity towards p-coumaric acid (1) [7]: 1.3 ± 0.6 nmol/min/mg; conversion rate of ferulic acid (3) [8]: 4.49 ± 0.20 nmol/min/mg; transformation of the challenging substrates 3 and 7 [9]: optimal

B5: M293P: 4HPA3H single variant M293P (protein, listed as Escherichia coli)
chain: B1 chain with M293P, F301Y
modifications: 4HPA3H HpaB M293P
For B5, which “activity towards substrates 1, 13, 15 compared with wild-type enzyme” value [6] is on record?
Its value is “reduced activity”.

B6: 4HPA3H: wild-type 4-hydroxyphenylacetate 3-hydroxylase from E. coli, SEQ ID NO:98 (protein, listed as Escherichia coli)
chain: B1 chain with F301Y
modifications: 4HPA3H HpaB wt
Which “specific activity towards p-coumaric acid (1)” value [7] does the source give for B6 here?
The value was 6.2 ± 0.5 nmol/min/mg.
